From publication PMC11219871, “Epigenetic-based differentiation therapy for Acute Myeloid Leukemia” (Nature Communications, 2024)
pIC50: −log10 of the molar value.

Experiments:
Assay in all cases: Epigenetic panel (BPS Bioscience)
Format in all cases: binding
BRD4 (BD1) = target: T1, BRD4 (BD1) (Homo sapiens, UniProt O60885)
T1 construct: purchased BPS Bioscience; Eurofins (HDAC4, 5, 7-11)
From the text: (§1) The selectivity of CM-444 and CM-1758 against other epigenetic targets, including histone demethylase (JMJD2A, JMJD2B, JMJD2C, JMJD2D, JMJD2E, JMJD3, JMJD1A, LSD1, Jarid1A, Jarid1B, Jarid1C, FBXL10, FBXL11, JHDM1D, JMJD1B, PHF8, LSD2 and UTX); histone acetyltransferases (GCN5, P300); histone methyltransferases (G9a, GLP, MLL1, SET7/9, SUV39H1, SUV39H2, PRMT1, PRMT3, PRMT4, PRMT5, PRMT6, PRMT8, PRMT9, NSD1, NSD2, EZH1, EZH2, SETDB1, SETD2, SET8, SUV4-20H1, SMYD2, SMYD3, DOT1L, EZH2 (A677G), EZH2 (A677G), EZH2 (A738T), EZH2 (Y641S), EZH2 (P132S), EZH2 (Y641C), EZH2 (Y641F), EZH2 (Y641H), EZH2 (Y641N)); bromodomains (ATAD2B, ATAD2A, BRD1, BRD9, BPTF/FALZ, CeCR2, BRPF3, BRD3 (BD1 + BD2), BAZ2B, WDR9, TAF1 (BD2), TAF1L (BD2), TAF1L (BD1 + BD2), BRD2 (BD1), BRD2 (BD2), BRD2 (BD1 + BD2), BRD3 (BD1), BRD3 (BD2), BRD4 (BD1), BRD4 (BD2), BRD4 (BD1 + BD2), BRDT (BD1), BRDT (BD1 + BD2), CREBBP, SMARCA2A, SMARCA4/BRG1); DNA methyltranferases (DNMT1, DNMT3A/3L and DNMT3B/3L), and sirtuin histone deacetylases (SIRT1, SIRT2, SIRT3, SIRT5 and SIRT6), were determined by BPS Bioscience (http://www.bpsbioscience.com/index.ph). Binding experiments were performed in duplicate at a concentration of 10 μM.

SMARCA4/BRG1 = target: T2, SMARCA4/BRG1 (Homo sapiens, UniProt P51532)
T2 construct: purchased BPS Bioscience; Eurofins (HDAC4, 5, 7-11)
From the text: as §1

BRD9 = target: T3, BRD9 (Homo sapiens, UniProt Q9H8M2)
T3 construct: purchased BPS Bioscience (contracted assay service)
T3 sequence (Q9H8M2 1-597): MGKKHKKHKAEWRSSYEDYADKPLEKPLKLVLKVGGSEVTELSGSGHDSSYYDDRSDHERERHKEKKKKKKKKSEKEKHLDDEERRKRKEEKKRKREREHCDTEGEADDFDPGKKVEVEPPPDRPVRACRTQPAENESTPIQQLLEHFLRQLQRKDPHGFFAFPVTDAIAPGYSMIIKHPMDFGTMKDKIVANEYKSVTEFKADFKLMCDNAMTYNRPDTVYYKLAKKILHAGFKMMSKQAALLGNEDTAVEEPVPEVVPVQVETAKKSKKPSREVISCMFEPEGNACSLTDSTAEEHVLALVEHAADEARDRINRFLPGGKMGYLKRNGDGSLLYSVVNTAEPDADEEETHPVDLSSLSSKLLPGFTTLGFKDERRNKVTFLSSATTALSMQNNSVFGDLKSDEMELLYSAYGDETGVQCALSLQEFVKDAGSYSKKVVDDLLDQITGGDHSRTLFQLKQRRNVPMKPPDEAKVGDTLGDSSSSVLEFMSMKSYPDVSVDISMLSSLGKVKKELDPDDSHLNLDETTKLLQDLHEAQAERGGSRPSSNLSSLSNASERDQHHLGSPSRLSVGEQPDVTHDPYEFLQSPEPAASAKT
From the text: as §1

BRD2 (BD1+BD2) = target: T4, BRD2 (BD1+BD2) (Homo sapiens, UniProt P25440)
T4 construct: purchased BPS Bioscience; Eurofins (HDAC4, 5, 7-11)
From the text: as §1

WDR9 = target: T5, WDR9 (Homo sapiens, UniProt Q9NSI6)
T5 construct: purchased BPS Bioscience (contracted assay service)
From the text: as §1

BRD4 (BD2) = target: T6, BRD4 (BD2) (Homo sapiens, UniProt O60885)
T6 construct: purchased BPS Bioscience; Eurofins (HDAC4, 5, 7-11)
From the text: as §1

BRD2 (BD1) = target: T7, BRD2 (BD1) (Homo sapiens, UniProt P25440)
T7 construct: BRD2 (BD1); purchased BPS Bioscience (contracted assay service)
From the text: as §1

BRD3 (BD2) = target: T8, BRD3 (BD2) (Homo sapiens, UniProt Q15059)
T8 construct: purchased BPS Bioscience; Eurofins (HDAC4, 5, 7-11)
From the text: as §1

CeCR2 = target: T9, CeCR2 (Homo sapiens, UniProt Q9BXF3)
T9 construct: purchased BPS Bioscience (contracted assay service)
From the text: as §1

BRD3 (BD1+BD2) = target: T10, BRD3 (BD1+BD2) (Homo sapiens, UniProt Q15059)
T10 construct: purchased BPS Bioscience; Eurofins (HDAC4, 5, 7-11)
From the text: as §1

TAF1L (BD1+BD2) = target: T11, TAF1L (BD1+BD2) (Homo sapiens, UniProt Q8IZX4)
T11 construct: purchased BPS Bioscience; Eurofins (HDAC4, 5, 7-11)
From the text: as §1

TAF1 (BD2) = target: T12, TAF1 (BD2) (Homo sapiens, UniProt P21675)
T12 construct: purchased BPS Bioscience; Eurofins (HDAC4, 5, 7-11)
From the text: as §1

BRD2 (BD2) = target: T13, BRD2 (BD2) (Homo sapiens, UniProt P25440)
T13 construct: purchased BPS Bioscience; Eurofins (HDAC4, 5, 7-11)
From the text: as §1

BRDT (BD1) = target: T14, BRDT (BD1) (Homo sapiens, UniProt Q58F21)
T14 construct: purchased BPS Bioscience; Eurofins (HDAC4, 5, 7-11)
From the text: as §1

ATAD2B = target: T15, ATAD2B (Homo sapiens, UniProt Q9ULI0)
T15 construct: purchased BPS Bioscience; Eurofins (HDAC4, 5, 7-11)
From the text: as §1

BRD4 (BD1+BD2) = target: T16, BRD4 (BD1+BD2) (Homo sapiens, UniProt O60885)
T16 construct: purchased BPS Bioscience; Eurofins (HDAC4, 5, 7-11)
From the text: as §1

CREBBP = target: T17, CREBBP (Homo sapiens, UniProt Q92793)
T17 construct: purchased BPS Bioscience; Eurofins (HDAC4, 5, 7-11)
From the text: as §1

BAZ2B = target: T18, BAZ2B (Homo sapiens, UniProt Q9UIF8)
T18 construct: purchased BPS Bioscience; Eurofins (HDAC4, 5, 7-11)
From the text: as §1

ATAD2A = target: T19, ATAD2A (Homo sapiens, UniProt Q6PL18)
T19 construct: purchased BPS Bioscience; Eurofins (HDAC4, 5, 7-11)
From the text: as §1

BRPF3 = target: T20, BRPF3 (Homo sapiens, UniProt Q9ULD4)
T20 construct: purchased BPS Bioscience; Eurofins (HDAC4, 5, 7-11)
From the text: as §1

TAF1L (BD2) = target: T21, TAF1L (BD2) (Homo sapiens, UniProt Q8IZX4)
T21 construct: purchased BPS Bioscience; Eurofins (HDAC4, 5, 7-11)
From the text: as §1

BRDT (BD1+BD2) = target: T22, BRDT (BD1+BD2) (Homo sapiens, UniProt Q58F21)
T22 construct: purchased BPS Bioscience; Eurofins (HDAC4, 5, 7-11)
From the text: as §1

T7 sequence (P25440 74-180 limits assumed): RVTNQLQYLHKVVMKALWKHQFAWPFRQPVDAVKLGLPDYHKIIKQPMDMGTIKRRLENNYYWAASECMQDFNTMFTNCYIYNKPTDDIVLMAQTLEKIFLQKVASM
T9 sequence (Q9BXF3 whole entry): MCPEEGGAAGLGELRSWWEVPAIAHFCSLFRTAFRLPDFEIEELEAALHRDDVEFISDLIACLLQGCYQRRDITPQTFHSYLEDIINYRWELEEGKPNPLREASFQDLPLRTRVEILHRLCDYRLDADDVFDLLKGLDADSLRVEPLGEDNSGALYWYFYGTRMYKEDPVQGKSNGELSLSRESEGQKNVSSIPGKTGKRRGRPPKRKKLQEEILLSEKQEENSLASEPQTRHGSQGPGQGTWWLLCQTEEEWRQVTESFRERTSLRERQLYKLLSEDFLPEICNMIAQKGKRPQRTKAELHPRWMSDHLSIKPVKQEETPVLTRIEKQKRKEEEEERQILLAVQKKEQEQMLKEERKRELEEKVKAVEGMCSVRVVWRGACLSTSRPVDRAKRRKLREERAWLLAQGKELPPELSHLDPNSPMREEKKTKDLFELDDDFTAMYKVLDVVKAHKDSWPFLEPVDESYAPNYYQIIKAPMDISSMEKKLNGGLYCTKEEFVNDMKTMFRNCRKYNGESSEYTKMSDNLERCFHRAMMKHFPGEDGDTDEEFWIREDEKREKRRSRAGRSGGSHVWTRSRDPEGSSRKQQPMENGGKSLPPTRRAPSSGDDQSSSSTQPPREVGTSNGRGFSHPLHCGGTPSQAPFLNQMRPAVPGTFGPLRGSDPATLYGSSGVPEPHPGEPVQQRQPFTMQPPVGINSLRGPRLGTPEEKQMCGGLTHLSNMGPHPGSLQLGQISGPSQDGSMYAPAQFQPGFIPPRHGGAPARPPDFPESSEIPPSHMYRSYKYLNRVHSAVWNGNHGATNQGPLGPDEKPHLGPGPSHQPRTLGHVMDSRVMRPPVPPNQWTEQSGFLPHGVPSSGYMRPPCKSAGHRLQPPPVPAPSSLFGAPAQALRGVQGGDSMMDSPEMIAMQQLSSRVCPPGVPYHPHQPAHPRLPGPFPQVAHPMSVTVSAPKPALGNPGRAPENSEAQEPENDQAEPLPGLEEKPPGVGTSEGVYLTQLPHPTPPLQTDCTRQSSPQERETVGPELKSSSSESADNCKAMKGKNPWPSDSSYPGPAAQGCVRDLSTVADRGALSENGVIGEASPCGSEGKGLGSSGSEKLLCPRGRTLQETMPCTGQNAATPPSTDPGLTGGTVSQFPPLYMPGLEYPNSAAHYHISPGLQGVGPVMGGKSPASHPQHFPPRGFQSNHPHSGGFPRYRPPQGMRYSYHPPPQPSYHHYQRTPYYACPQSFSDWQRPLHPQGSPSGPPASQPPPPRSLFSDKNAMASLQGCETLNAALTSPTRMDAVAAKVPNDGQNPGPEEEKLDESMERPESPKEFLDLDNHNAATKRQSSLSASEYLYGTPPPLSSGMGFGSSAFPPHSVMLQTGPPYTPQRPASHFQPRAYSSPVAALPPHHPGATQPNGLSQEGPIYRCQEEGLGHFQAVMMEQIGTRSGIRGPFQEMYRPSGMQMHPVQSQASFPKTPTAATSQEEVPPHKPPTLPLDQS
T5 sequence (Q9NSI6 whole entry): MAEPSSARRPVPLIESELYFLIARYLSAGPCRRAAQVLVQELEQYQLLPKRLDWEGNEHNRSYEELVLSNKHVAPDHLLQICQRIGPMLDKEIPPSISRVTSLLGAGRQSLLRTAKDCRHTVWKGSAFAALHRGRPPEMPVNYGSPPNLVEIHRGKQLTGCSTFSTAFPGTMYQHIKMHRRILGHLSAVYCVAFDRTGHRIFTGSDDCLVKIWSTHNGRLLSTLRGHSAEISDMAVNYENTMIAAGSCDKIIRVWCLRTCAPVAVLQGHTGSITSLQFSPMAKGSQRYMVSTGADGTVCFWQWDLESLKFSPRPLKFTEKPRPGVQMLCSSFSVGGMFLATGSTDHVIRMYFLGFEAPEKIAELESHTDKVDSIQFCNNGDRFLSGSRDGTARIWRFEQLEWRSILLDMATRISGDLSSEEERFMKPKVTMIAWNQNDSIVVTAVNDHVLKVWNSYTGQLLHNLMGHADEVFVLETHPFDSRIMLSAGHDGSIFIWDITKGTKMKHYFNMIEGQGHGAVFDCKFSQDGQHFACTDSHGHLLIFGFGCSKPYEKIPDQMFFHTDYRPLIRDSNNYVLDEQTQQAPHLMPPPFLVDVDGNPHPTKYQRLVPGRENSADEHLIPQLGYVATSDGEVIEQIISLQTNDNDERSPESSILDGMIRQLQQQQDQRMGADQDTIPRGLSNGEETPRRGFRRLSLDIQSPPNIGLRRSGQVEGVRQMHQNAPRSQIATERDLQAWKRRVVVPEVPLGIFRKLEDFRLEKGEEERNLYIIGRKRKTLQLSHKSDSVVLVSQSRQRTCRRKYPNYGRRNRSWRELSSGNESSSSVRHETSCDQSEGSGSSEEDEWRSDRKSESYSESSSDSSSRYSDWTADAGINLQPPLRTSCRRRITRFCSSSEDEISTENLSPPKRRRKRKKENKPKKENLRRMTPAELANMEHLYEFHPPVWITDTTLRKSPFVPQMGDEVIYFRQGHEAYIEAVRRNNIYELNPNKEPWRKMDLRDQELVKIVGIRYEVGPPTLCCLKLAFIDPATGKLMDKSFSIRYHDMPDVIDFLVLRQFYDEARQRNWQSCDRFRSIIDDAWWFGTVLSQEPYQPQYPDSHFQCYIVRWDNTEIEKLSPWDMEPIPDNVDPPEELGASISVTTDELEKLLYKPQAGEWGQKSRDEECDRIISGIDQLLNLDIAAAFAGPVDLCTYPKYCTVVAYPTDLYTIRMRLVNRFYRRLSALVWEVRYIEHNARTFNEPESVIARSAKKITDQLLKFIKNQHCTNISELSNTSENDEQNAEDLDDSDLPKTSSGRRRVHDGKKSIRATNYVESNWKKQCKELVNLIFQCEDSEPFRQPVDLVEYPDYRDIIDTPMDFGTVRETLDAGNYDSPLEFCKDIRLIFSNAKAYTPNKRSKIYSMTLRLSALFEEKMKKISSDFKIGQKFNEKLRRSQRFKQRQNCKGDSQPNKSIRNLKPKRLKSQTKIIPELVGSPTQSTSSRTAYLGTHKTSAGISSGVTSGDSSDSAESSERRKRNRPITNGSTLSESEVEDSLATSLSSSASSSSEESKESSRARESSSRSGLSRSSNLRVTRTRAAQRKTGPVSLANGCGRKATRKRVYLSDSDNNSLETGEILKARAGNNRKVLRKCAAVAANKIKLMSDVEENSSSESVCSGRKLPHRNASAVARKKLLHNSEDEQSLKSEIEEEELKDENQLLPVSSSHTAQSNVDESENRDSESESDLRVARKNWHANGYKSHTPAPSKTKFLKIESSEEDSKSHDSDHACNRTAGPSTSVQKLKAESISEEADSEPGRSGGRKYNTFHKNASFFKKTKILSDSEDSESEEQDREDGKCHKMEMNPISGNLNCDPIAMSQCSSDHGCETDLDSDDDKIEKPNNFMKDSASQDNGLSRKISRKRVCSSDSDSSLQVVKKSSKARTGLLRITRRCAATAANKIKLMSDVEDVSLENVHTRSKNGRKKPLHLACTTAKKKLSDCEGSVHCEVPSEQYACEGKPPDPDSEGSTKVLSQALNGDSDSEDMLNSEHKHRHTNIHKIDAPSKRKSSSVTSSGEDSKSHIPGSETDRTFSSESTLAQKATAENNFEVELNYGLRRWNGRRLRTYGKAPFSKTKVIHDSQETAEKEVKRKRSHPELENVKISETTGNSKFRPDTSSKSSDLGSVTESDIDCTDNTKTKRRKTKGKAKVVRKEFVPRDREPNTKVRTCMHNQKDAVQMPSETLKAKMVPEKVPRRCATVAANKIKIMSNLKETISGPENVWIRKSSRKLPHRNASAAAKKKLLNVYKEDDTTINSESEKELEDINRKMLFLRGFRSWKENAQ
T12 sequence (P21675 1522-1656 limits assumed): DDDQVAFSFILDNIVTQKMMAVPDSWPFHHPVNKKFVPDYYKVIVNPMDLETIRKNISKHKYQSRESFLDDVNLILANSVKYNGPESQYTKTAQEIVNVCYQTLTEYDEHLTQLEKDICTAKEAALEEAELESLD
T21 sequence (Q8IZX4 1523-1654 limits assumed): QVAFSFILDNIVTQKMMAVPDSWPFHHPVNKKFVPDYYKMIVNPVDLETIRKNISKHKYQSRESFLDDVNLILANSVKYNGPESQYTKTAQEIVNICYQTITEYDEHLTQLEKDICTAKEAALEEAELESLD
T13 sequence (P25440 339-459 limits assumed): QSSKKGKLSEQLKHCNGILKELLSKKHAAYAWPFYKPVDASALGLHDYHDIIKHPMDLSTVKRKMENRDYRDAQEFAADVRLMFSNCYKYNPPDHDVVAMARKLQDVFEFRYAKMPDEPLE
T10 sequence (Q15059 29-419 limits assumed): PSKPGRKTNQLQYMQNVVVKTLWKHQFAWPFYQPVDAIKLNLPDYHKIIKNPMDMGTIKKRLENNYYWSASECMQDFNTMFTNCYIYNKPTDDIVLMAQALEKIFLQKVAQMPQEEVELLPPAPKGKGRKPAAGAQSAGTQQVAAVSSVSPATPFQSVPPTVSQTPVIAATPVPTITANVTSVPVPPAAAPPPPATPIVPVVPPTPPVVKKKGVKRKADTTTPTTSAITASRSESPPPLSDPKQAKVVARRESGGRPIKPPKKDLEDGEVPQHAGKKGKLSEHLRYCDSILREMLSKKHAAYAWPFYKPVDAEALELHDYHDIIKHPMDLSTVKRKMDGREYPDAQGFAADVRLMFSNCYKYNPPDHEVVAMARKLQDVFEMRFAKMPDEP
T11 sequence (Q8IZX4 1395-1654): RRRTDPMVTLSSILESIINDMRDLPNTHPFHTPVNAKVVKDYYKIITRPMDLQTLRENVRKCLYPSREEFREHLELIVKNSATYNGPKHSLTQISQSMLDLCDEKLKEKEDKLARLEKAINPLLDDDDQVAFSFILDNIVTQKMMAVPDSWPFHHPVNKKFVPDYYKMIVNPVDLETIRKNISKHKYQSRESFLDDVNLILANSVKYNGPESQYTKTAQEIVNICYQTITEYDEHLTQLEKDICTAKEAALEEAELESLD

Compound	inhibition at 10 µM (BRD4 (BD1)) [%]	inhibition at 10 µM (SMARCA4/BRG1) [%]	pIC50 (BRD9)	inhibition at 10 µM (BRD9) [%]	inhibition at 10 µM (BRD2 (BD1+BD2)) [%]	inhibition at 10 µM (WDR9) [%]	inhibition at 10 µM (BRD4 (BD2)) [%]	inhibition at 10 µM (BRD2 (BD1)) [%]	inhibition at 10 µM (BRD3 (BD2)) [%]	inhibition at 10 µM (CeCR2) [%]	inhibition at 10 µM (BRD3 (BD1+BD2)) [%]	inhibition at 10 µM (TAF1L (BD1+BD2)) [%]	inhibition at 10 µM (TAF1 (BD2)) [%]	inhibition at 10 µM (BRD2 (BD2)) [%]	inhibition at 10 µM (BRDT (BD1)) [%]	inhibition at 10 µM (ATAD2B) [%]	inhibition at 10 µM (BRD4 (BD1+BD2)) [%]	inhibition at 10 µM (CREBBP) [%]	inhibition at 10 µM (BAZ2B) [%]	inhibition at 10 µM (ATAD2A) [%]	further results
COc1cc2nc(-c3cc(C)oc3C)cc(NCC3CCN(c4ncc(C(=O)NO)cn4)CC3)c2cc1OC [CM-1758, 2-[4-[[[2-(2,5-dimethyl-3-furyl)-6,7-dimethoxy-4-quinolyl]amino]methyl] -1-piperidyl]pyrimidine-5-carbohydroxamic acid]	0	18	4.44	75	29	35	0	25	0	72	29	0	0	34	23	13	50	6	0	0	pIC50 (CeCR2): 6.03; inhibition at 10 µM (BRPF3): 40%; inhibition at 10 µM (TAF1L (BD2)): 0%; inhibition at 10 µM (BRDT (BD1+BD2)): 17%
COc1cc2nc(-c3ccc(C)o3)cc(NCC3CCN(c4ncc(C(=O)NO)cn4)CC3)c2cc1OC [CM-444, 2-[4-[[[6,7-dimethoxy-2-(5-methyl-2-furyl)-4-quinolyl]amino]methyl]-1-piperidyl]pyrimidine-5-carbohydroxamic acid]	6	0	4.89	69	21	51	0	71	0	0	43	0	0	0	44	0	41	0	0	0	pIC50 (WDR9): < 4.30; pIC50 (BRD2 (BD1)): 4.51; inhibition at 10 µM (BRPF3): 0%; inhibition at 10 µM (TAF1L (BD2)): 0%; inhibition at 10 µM (BRDT (BD1+BD2)): 38%
